# Data published in publication PMC9091252 (Nature Communications, 2022).
# “And” between values parts separate entries of the source, which are not always exact repeats. Identical values can stand only once.
# Columns and labels:
# SARS-CoV-2 = experiment: AFM inhibition assay: binding probability between SARS-CoV-2 virions and 9-AcSA coated surfaces before and after incubation with oligomers; settings: for relative BP, Mean: mean of 3 tips, 0 uM = 1; for relative BP, single tip: normalized to 0 uM = 1
# S1 subunit = S1 subunit (Severe acute respiratory syndrome coronavirus 2, UniProt P0DTC2); experiment: Dynamic force spectroscopy and kinetic on-rate analysis of the S1 – 9-AcSA bond; assay type: binding, SARS-CoV-2
# S1 domain of SARS-CoV-2 = S1 domain of SARS-CoV-2 (Severe acute respiratory syndrome coronavirus 2, UniProt P0DTC2); experiment: FD-based AFM binding probability of S1-functionalized tip on 9-AcSA, SA or streptavidin coated surfaces
molecule,measurement,setting,value
9-O-acetylated sialic acid [9-AcSA],IC50,SARS-CoV-2,> 100 µM
same,"relative BP, Mean",SARS-CoV-2; 1 uM,0.8501
same,"relative BP, single tip",SARS-CoV-2; 1 uM,0.7609 and 0.6994 and 1.09
same,"relative BP, Mean",SARS-CoV-2; 10 uM,0.807
same,"relative BP, single tip",SARS-CoV-2; 10 uM,0.7029 and 0.638 and 1.08
same,"relative BP, Mean",SARS-CoV-2; 100 uM,0.638
same,"relative BP, single tip",SARS-CoV-2; 100 uM,0.587 and 0.4969 and 0.83
same,reduction in the binding probability,"SARS-CoV-2; over the explored range 1, 10, 100 µM",20-30%
same,koff,"S1 subunit; Bell-Evans fit, single S1 – 9-AcSA bond",0.24 ± 0.2 s⁻¹
same,KD,S1 subunit; ratio between koff and kon,low micromolar range
same,Kd,S1 subunit; ratio between koff and kon,5.7 ± 5 µM
same,binding probability in competition assay with free 9-AcSA,"S1 domain of SARS-CoV-2; S1 tip on 9-AcSA surface, free 1 mM 9-AcSA",significantly lower BP
same,difference in binding probability between acetylated and non-acetylated SA,"S1 domain of SARS-CoV-2; S1 tip, 9-AcSA versus SA coated surface",~ 3 fold
CC(=O)N[C@H]1[C@H]([C@H](O)[C@H](O)CO)O[C@@](OCc2cn(CCOc3cc4c(OCCn5cc(CO[C@]6(C(=O)O)C[C@H](O)[C@@H](NC(C)=O)[C@H]([C@H](O)[C@H](O)CO)O6)nn5)cc3Cc3cc(OCCn5cc(CO[C@]6(C(=O)O)C[C@H](O)[C@@H](NC(C)=O)[C@H]([C@H](O)[C@H](O)CO)O6)nn5)c(cc3OCCn3cc(CO[C@]5(C(=O)O)C[C@H](O)[C@@H](NC(C)=O)[C@H]([C@H](O)[C@H](O)CO)O5)nn3)Cc3cc(OCCn5cc(CO[C@]6(C(=O)O)C[C@H](O)[C@@H](NC(C)=O)[C@H]([C@H](O)[C@H](O)CO)O6)nn5)c(cc3OCCn3cc(CO[C@]5(C(=O)O)C[C@H](O)[C@@H](NC(C)=O)[C@H]([C@H](O)[C@H](O)CO)O5)nn3)Cc3cc(OCCn5cc(CO[C@]6(C(=O)O)C[C@H](O)[C@@H](NC(C)=O)[C@H]([C@H](O)[C@H](O)CO)O6)nn5)c(cc3OCCn3cc(CO[C@]5(C(=O)O)C[C@H](O)[C@@H](NC(C)=O)[C@H]([C@H](O)[C@H](O)CO)O5)nn3)Cc3cc(OCCn5cc(CO[C@]6(C(=O)O)C[C@H](O)[C@@H](NC(C)=O)[C@H]([C@H](O)[C@H](O)CO)O6)nn5)c(cc3OCCn3cc(CO[C@]5(C(=O)O)C[C@H](O)[C@@H](NC(C)=O)[C@H]([C@H](O)[C@H](O)CO)O5)nn3)C4)nn2)(C(=O)O)C[C@@H]1O [compound 4],"relative BP, Mean",SARS-CoV-2; 1 uM,0.7825
same,"relative BP, single tip","SARS-CoV-2; 1 uM, listed as Pillar[5]arene NonAc",0.6071 and 0.8687 and 0.8718
same,"relative BP, Mean",SARS-CoV-2; 10 uM,0.836
same,"relative BP, single tip","SARS-CoV-2; 10 uM, listed as Pillar[5]arene NonAc",0.7738 and 0.9394 and 0.7949
same,"relative BP, Mean",SARS-CoV-2; 100 uM,0.9261
same,"relative BP, single tip","SARS-CoV-2; 100 uM, listed as Pillar[5]arene NonAc",0.9286 and 0.9394 and 0.9103
